In one assay the target is SRC (Homo sapiens, UniProt P12931). As to the kind of experiment: SRC Biochemical Assay Protocol (microfluidic mobility shift assay, FLPeptide4 substrate). The method in brief:
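Mobility-shift readout of phosphorylated FLPeptide4 (1.5 μM) after 90 min kinase reaction with 50 μM ATP and 0.26 nM SRC in pH 7.4 HEPES buffer. Compounds, tested 0.0017–100 μM, were preincubated 30 min with enzyme and peptide; IC50 from 4-parameter logistic fit versus neutral controls.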

For the next assay, the system named is RBE cells. In words: Cell Viability Protocol (CellTiterGlo), RBE cells. Type of assay: cell-based. The settings on record: RBE or SNU-1079 cells, 72 or 120 hour, cell line and time not given. The method in brief:
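After 72 h or 120 h compound exposure at 37° C, viability was read by CellTiterGlo as % of DMSO vehicle, with IC50 fitted by a 4-parameter curve. Cells had been seeded at 1200/well in 10% FBS RPMI 1640 and allowed 24 h before dosing.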
For orientation: In ATP-based viability assays light output follows the ATP content of the culture.

The subject of assay [1] is phospho-S6RP (Ser 235/236) in RBE cells. In words: Cellular Proliferation Protocol (cellular phospho-S6RP HTRF), RBE cells. Type of assay: cell-based. The settings on record: 6 hours treatment, RBE or SNU-1079 cells, cell line not given. In short, it runs like this:
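Phospho-S6RP (Ser 235/236) was quantified by HTRF in lysed RBE cells (2000/well) after a 6 h treatment at 37° C, with overnight antibody incubation at room temperature. IC50 values came from 4-parameter dose-response fits relative to DMSO vehicle.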
(Time-resolved FRET reads energy transfer from a long-lived donor to a nearby acceptor.)

Molecules are shown by their SMILES. Where a name gives a salt, the structure may show the parent alone. Bounds are passed on as bounds.

By IC50 is commonly meant the point on the concentration scale where inhibition reaches its midpoint.

SRC, sequence (P12931 whole entry, species assumed): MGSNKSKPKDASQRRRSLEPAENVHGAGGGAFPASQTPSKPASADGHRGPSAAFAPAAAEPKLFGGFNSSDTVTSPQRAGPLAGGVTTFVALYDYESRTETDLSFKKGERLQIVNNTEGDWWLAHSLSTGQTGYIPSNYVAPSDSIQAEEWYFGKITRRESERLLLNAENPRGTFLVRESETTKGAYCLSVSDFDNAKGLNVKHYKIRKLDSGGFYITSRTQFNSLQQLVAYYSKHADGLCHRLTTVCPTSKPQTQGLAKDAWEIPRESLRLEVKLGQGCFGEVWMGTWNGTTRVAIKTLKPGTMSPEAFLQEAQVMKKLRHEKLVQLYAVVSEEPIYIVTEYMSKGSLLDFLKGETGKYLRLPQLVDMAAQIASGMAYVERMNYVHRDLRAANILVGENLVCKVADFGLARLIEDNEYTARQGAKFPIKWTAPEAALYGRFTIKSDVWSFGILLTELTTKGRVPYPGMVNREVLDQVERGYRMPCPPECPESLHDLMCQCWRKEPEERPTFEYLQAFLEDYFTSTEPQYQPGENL

As to `COCCN(C)C/C=C/C(=O)N1C[C@@H]2[C@@H](C#Cc3c(-c4ccc(Oc5cccc(C)n5)c(OC)c4)c4c(N)ncnc4n3C)[C@@H]2C1` [II-237, (E)-1-((1R,5S,6s)-6-((4-amino-5-(3-methoxy-4-((6-methylpyridin-2-yl)oxy)phenyl)-7-methyl-7H-pyrrolo[2,3-d]pyrimidin-6-yl)ethynyl)-3-azabicyclo[3.1.0]hexan-3-yl)-4-((2-methoxyethyl) (methyl)amino)but-2-en-1-one], the IC50 (at SRC; with RBE cells; in assay [1] (6 h)) was 10 to 1000 nM throughout.
As to `CCn1c(C#C[C@@H]2[C@H]3CN(C(=O)/C=C/CN(C)C)C[C@@H]23)c(-c2cccc3c2OCO3)c2c(N)ncnc21` [II-117], the IC50 (on SRC; in the assay on RBE cells; in assay [1]) was at most 10 nM each time.
Take `C=CC(=O)N1CC2C(C#Cc3c(-c4cccc5c4OCO5)c4c(N)ncnc4n3C)C2C1` (stereo not drawn) [II-126]: the IC50 on SRC is at most 10 nM; in the assay with RBE cells, 10 to 1000 nM; in assay [1], 10 to 1000 nM.
With `COCCn1c(C#CC2CN(C(=O)/C=C/CN(C)C)C2)c(-c2ccc(Oc3ccccc3)cc2)c2c(N)ncnc21` [II-191, (E)-1-(3-((4-amino-7-(2-methoxyethyl)-5-(4-phenoxyphenyl)-7H-pyrrolo[2,3-d]pyrimidin-6-yl)ethynyl)azetidin-1-yl)-4-(dimethylamino) but-2-en-1-one], the IC50 (on SRC; in the assay with RBE cells; in assay [1] (6 h)) was 10 to 1000 nM throughout.
In the case of `C=CC(=O)N1C[C@@H]2[C@@H](C#Cc3c(-c4ccc(Oc5cnccn5)cc4)c4c(N)ncnc4n3C)[C@@H]2C1` [II-22], the IC50 (on SRC; with RBE cells; in assay [1]) was 10 to 1000 nM in each case.
With `C=CC(=O)N1CC[C@H](N2CC(F)(C#Cc3c(-c4ccc(Oc5cccc(C)n5)cc4)c4c(N)ncnc4n3C)C2)[C@@H](O)C1` [II-220, 1-((3S,4S)-4-(3-((4-amino-7-methyl-5-(4-((6-methylpyridin-2-yl)oxy)phenyl)-7H-pyrrolo[2,3-d]pyrimidin-6-yl)ethynyl)-3-fluoroazetidin-1-yl)-3-hydroxypiperidin-1-yl)prop-2-en-1-one], the IC50 (on SRC; with RBE cells; in assay [1] (6 h)) was 10 to 1000 nM each time.
As to `C=CC(=O)N1CCC(N2CC(C#Cc3c(-c4ccc(Oc5ccccc5)cc4)c4c(N)ncnc4n3CCOC)C2)CC1` [II-189, 1-(4-(3-((4-amino-7-(2-methoxyethyl)-5-(4-phenoxyphenyl)-7H-pyrrolo[2,3-d]pyrimidin-6-yl)ethynyl)azetidin-1-yl)piperidin-1-yl)prop-2-en-1-one], the results for the half-maximal inhibitory concentration (IC50) (at SRC; in the assay on RBE cells; in assay [1] (6 h)) were 10 to 1000 nM, 1000 to 10000 nM and 1000 to 10000 nM, respectively.
`C=CC(=O)N1CCC(N2CC(C#Cc3c(-c4ccc(Cl)c(OC)n4)c4c(N)ncnc4n3C)C2)CC1` [II-324]: the IC50 (on SRC; with RBE cells; in assay [1]) was 10 to 1000 nM each time.
As to `C=CC(=O)N1CCC(N2CC(C#Cc3c(-c4ccc(F)c5c4OCO5)c4c(N)ncnc4n3CC)C2)CC1` [II-290], the IC50 was at most 10 nM on SRC, 10 to 1000 nM in the assay with RBE cells and 10 to 1000 nM in assay [1] (6 h).
In the case of `C=CC(=O)N1CCC(N2CC(C#Cc3c(-c4ccc(Cl)c(C)n4)c4c(N)ncnc4n3C(C)C)C2)CC1` [II-326], the IC50 (at SRC; with RBE cells; in assay [1]) was 10 to 1000 nM each time.
As for `CCC(=O)N1C[C@@H]2[C@@H](C#Cc3c(-c4ccc(F)c5c4OCO5)c4c(N)ncnc4n3C(C)C)[C@@H]2C1` [II-133], the IC50 at SRC is at most 10 nM; with RBE cells, 10 to 1000 nM; in assay [1], 10 to 1000 nM.
For the compound `C=CC(=O)N1CC[C@H](N2CC(C#Cc3c(-c4ccc(Cl)c(C)c4)c4c(N)ncnc4n3C(C)C)C2)[C@H](O)C1` [II-112], the IC50 was at most 10 nM at SRC, 10 to 1000 nM in the assay on RBE cells and 10 to 1000 nM in assay [1].
On to `C=CC(=O)N1CCC(N2CC(C#Cc3c(-c4cccc5c4OCO5)c4c(N)ncnc4n3C(C)C)C2)C(O)C1` (stereo not drawn) [II-108], for which the IC50 (on SRC; in the assay on RBE cells; in assay [1]) was at most 10 nM in each case.
On to `C=CC(=O)N1C[C@@H]2[C@@H](C#Cc3c(-c4ccc(F)c5c4OCO5)c4c(N)ncnc4n3C(C)C)[C@@H]2C1` [II-131], for which the IC50 (on SRC; with RBE cells; in assay [1]) was at most 10 nM each time.
For `C=CC(=O)N1CCC(N2CC(C#Cc3c(-c4ccc(Oc5ccccc5)cc4)c4c(N)ncnc4n3C)C2)C[C@@H]1COC` (stereo partly drawn) [II-186, 1-((2R)-4-(3-((4-amino-7-methyl-5-(4-phenoxyphenyl)-7H-pyrrolo[2,3-d]pyrimidin-6-yl)ethynyl)azetidin-1-yl)-2-(methoxymethyl)piperidin-1-yl)prop-2-en-1-one], the IC50 (on SRC; in the assay on RBE cells; in assay [1] (6 h)) was at most 10 nM throughout.
As for `Cn1c(C#CC2CCCN(C(=O)/C=C/CN3CCCCC3)CC2)c(-c2ccc(Oc3ccccc3)cc2)c2c(N)ncnc21` (stereo not drawn) [II-180, (E)-1-(4-((4-amino-7-methyl-5-(4-phenoxyphenyl)-7H-pyrrolo[2,3-d]pyrimidin-6-yl)ethynyl)azepan-1-yl)-4-(piperidin-1-yl)but-2-en-1-one formate], the results for the IC50 (on SRC; in the assay on RBE cells; in assay [1] (6 h)) were 10 to 1000 nM, 1000 to 10000 nM and 1000 to 10000 nM, respectively.
For the compound `CN(C)C/C=C/C(=O)N1C[C@@H]2[C@@H](C#Cc3c(-c4ccc(Oc5ccccc5)cc4)c4c(N)ncnc4n3C)[C@@H]2C1` [II-207], the IC50 (on SRC; in the assay with RBE cells; in assay [1] (6 h)) was 10 to 1000 nM in each case.
For the compound `C=CC(=O)N[C@H](CO)C(=O)N1CCC(C#Cc2c(-c3ccc(Oc4cccc(C)n4)cc3)c3c(N)ncnc3n2C)CC1` [II-200, (R)-N-(1-(4-((4-amino-7-methyl-5-(4-((6-methylpyridin-2-yl)oxy)phenyl)-7H-pyrrolo[2,3-d]pyrimidin-6-yl)ethynyl)piperidin-1-yl)-3-hydroxy-1-oxopropan-2-yl)acrylamide], the IC50 (at SRC; with RBE cells; in assay [1] (6 h)) was 10 to 1000 nM throughout.
As to `COc1cc(Oc2cccc(C)n2)ccc1-c1c(C#C[C@@H]2[C@H]3CN(C(=O)/C=C/CN(C)C)C[C@@H]23)n(C)c2ncnc(N)c12` [II-226, (E)-1-((1R,5S,6s)-6-((4-amino-5-(2-methoxy-4-((6-methylpyridin-2-yl)oxy)phenyl)-7-methyl-7H-pyrrolo[2,3-d]pyrimidin-6-yl)ethynyl)-3-azabicyclo[3.1.0]hexan-3-yl)-4-(dimethylamino) but-2-en-1-one], the IC50 (at SRC; in the assay with RBE cells; in assay [1] (6 h)) was 10 to 1000 nM each time.
For the compound `CN(C)CCC(=O)N1CCC(C#Cc2c(-c3ccc(Oc4ccccc4)cc3)c3c(N)ncnc3n2C)CC1` [II-188], the half-inhibitory concentration (IC50) (at SRC; with RBE cells; in assay [1] (6 h)) was 10 to 1000 nM in each case.
Regarding `COC/C=C/C(=O)N1CCC(N2CC(C#Cc3c(-c4ccc(Oc5ccccc5)cc4)c4c(N)ncnc4n3C)C2)CC1` [II-187, (E)-1-(4-(3-((4-amino-7-methyl-5-(4-phenoxyphenyl)-7H-pyrrolo[2,3-d]pyrimidin-6-yl)ethynyl)azetidin-1-yl)piperidin-1-yl)-4-methoxybut-2-en-1-one], the IC50 was 10 to 1000 nM at SRC, at most 10 nM in the assay on RBE cells and at most 10 nM in assay [1] (6 h).
On to `COCCN(C)C/C=C/C(=O)N1C[C@@H]2[C@@H](C#Cc3c(-c4ccc(Oc5cccc(F)c5)cc4)c4c(N)ncnc4n3C)[C@@H]2C1` [II-232, (E)-1-((1R,5S,6s)-6-((4-amino-5-(4-(3-fluorophenoxy)phenyl)-7-methyl-7H-pyrrolo[2,3-d]pyrimidin-6-yl)ethynyl)-3-azabicyclo[3.1.0]hexan-3-yl)-4-((2-methoxyethyl) (methyl)amino)but-2-en-1-one], for which the IC50 (on SRC; in the assay on RBE cells; in assay [1] (6 h)) was 10 to 1000 nM in each case.
Turning to `C=CC(=O)N1C[C@@H]2[C@@H](C#Cc3c(-c4ccc(Oc5ccccc5)c(OC)c4)c4c(N)ncnc4n3C)[C@@H]2C1` [II-27], the IC50 (at SRC; with RBE cells; in assay [1]) was at most 10 nM throughout.
On to `C=CC(=O)N1CC[C@@H](N2CC(C#Cc3c(-c4ccc(Oc5cccc(C)n5)cc4)c4c(N)ncnc4n3C)C2)[C@@H](F)C1` [II-201, 1-((3S,4R)-4-(3-((4-amino-7-methyl-5-(4-(6-methylpyridin-2-yloxy)phenyl)-7H-pyrrolo[2,3-d]pyrimidin-6-yl)ethynyl)azetidin-1-yl)-3-fluoropiperidin-1-yl)prop-2-en-1-one], for which the IC50 (on SRC; with RBE cells; in assay [1] (6 h)) was 10 to 1000 nM in each case.
Regarding `CN(C)C/C=C/C(=O)N1CCCC(C#Cc2c(-c3ccc(Oc4ccccc4)cc3)c3c(N)ncnc3n2C)CC1` (stereo not drawn) [II-179, (E)-1-(4-((4-amino-7-methyl-5-(4-phenoxyphenyl)-7H-pyrrolo[2,3-d]pyrimidin-6-yl)ethynyl)azepan-1-yl)-4-(dimethylamino) but-2-en-1-one], the IC50 (at SRC; in the assay on RBE cells; in assay [1] (6 h)) was 10 to 1000 nM each time.

The values above are taken from patent US20250154154A1 (Relay Binney Street, 2nd Floor, priority 2020, published 2025).
